{"source": "patent US5082942A", "about": "“Novel derivatives of tetrahydro-2,3,6,7,1H,5H,11H-(1)benzopyrano(6,7,8,ij)quinolizinone-11 usable as markers of organic compounds for the detection of said compounds by chemiluminescence or fluorescence” (Laboratories Eurobio, priority 1988, dated 1992)", "key": {"[1]": {"assay": "Chemiluminescence measurements", "type": "physicochemical", "details": "for RC, quantum efficiency of chemiluminescence: 10^-3 mole/l coumarin solution; for RE, excitation efficiency: RC = Rex × RF"}, "[2]": {"assay": "Fluorescence and absorbance measurements", "type": "physicochemical", "details": "for ε, molecular extinction coefficient: 365 nm; for S, fluorescence sensitivity: Table 2; for RF, quantum efficiency of fluorescence: acetone and ethylacetate 75:25, 10^-6 mole/l, 20°C, relative to quinine disulphate"}, "[3]": {"assay": "Solubility in organic solvents", "type": "physicochemical", "details": "organic solvent or mixture; in tetrahydrofuran, acetone or methanol"}, "[4]": {"assay": "Stability of a solution in tetrahydrofuran (high pressure liquid chromatography and fluorimetric detection)", "type": "physicochemical", "details": "2.10^-3 mole/l in tetrahydrofuran", "description": "The stability of a 2.10^-3 mole/l solution of luminarine-1 in tetrahydrofuran was studied by high pressure liquid chromatography and fluorimetric detection."}, "[5]": {"details": "2 mg/l in 0.1 N H2SO4; Parker method; cited from earlier work"}, "[6]": {"details": "TCPO and H2O2, (C102) 1.4 × 10^-3"}, "[7]": {"details": "TCPO and H2O2, (C102) 1.4 × 10^-6"}, "[8]": {"details": "TCPO and H2O2, (C102) 1.4 × 10^-7"}, "[9]": {"details": "TCPO and H2O2, (C102) 1.4 × 10^-8"}, "[10]": {"details": "TCPO and H2O2, (C102) 1.4 × 10^-9"}}, "data": [{"molecule": "CCN(CC)c1ccc2c(C)cc(=O)oc2c1", "note": "[COUMARIN-1, dimethylamino-7 methyl-4 coumarin]", "values": [{"measurement": "RC, quantum efficiency of chemiluminescence", "setting": "[1]; DNPO and H2O2", "value": "0.18 10^2 E · mole^-1"}, {"measurement": "RE, excitation efficiency", "setting": "[1]; DNPO and H2O2", "value": "0.33 10^-2"}, {"measurement": "RC, quantum efficiency of chemiluminescence", "setting": "[1]; TCPO and H2O2, pH 7.5", "value": "0.37 10^2 E · mole^-1"}, {"measurement": "RE, excitation efficiency", "setting": "[1]; TCPO and H2O2, pH 7.5", "value": 0.0067}, {"measurement": "ε, molecular extinction coefficient", "setting": "[2]", "value": "38 000"}, {"measurement": "S, fluorescence sensitivity", "setting": "[2]", "value": "57 10^3"}, {"measurement": "RF, quantum efficiency of fluorescence", "setting": "[2]", "value": 0.55}]}, {"molecule": "Cc1cc(=O)oc2c3c4c(cc12)CCCN4CCC3", "note": "[COUMARIN-102, tetrahydro-2,3,5,6,7,1H,5H,11H-(1)-benzopyrano (6,7,8-ij) methyl-9 quinolizinone-11]", "values": [{"measurement": "RC, quantum efficiency of chemiluminescence", "setting": "[1]; DNPO and H2O2", "value": "0.26 10^2 E · mole^-1"}, {"measurement": "RE, excitation efficiency", "setting": "[1]; DNPO and H2O2", "value": "0.45 10^-2"}, {"measurement": "chemiluminescence efficiency RC as a function of concentration", "setting": "[1]; TCPO and H2O2", "value": "increases with the coumarin 102 concentration"}, {"measurement": "RC, quantum efficiency of chemiluminescence", "setting": "[1]; TCPO and H2O2, pH 7.5", "value": "0.37 10^2 E · mole^-1"}, {"measurement": "RE, excitation efficiency", "setting": "[1]; TCPO and H2O2, pH 7.5", "value": 0.0065}, {"measurement": "Imax, maximum intensity", "setting": "[1]; [6]", "value": 301, "unit": "A.U."}, {"measurement": "RC, chemiluminescence efficiency", "setting": "[1]; [6]", "value": "12.0 10^4 E · mol^-1"}, {"measurement": "T1/2, time for reaching half the maximum intensity after the maximum time", "setting": "[1]; [6]", "value": 6, "unit": "s"}, {"measurement": "Tmax, time for reaching the maximum intensity", "setting": "[1]; [6]", "value": 12, "unit": "s"}, {"measurement": "Imax, maximum intensity", "setting": "[1]; [7]", "value": 75, "unit": "A.U."}, {"measurement": "RC, chemiluminescence efficiency", "setting": "[1]; [7]", "value": "4.14 10^4 E · mol^-1"}, {"measurement": "T1/2, time for reaching half the maximum intensity after the maximum time", "setting": "[1]; [7]", "value": 9, "unit": "s"}, {"measurement": "Tmax, time for reaching the maximum intensity", "setting": "[1]; [7]", "value": 12, "unit": "s"}, {"measurement": "Imax, maximum intensity", "setting": "[1]; [8]", "value": 31, "unit": "A.U."}, {"measurement": "RC, chemiluminescence efficiency", "setting": "[1]; [8]", "value": "2.31 10^4 E · mol^-1"}, {"measurement": "T1/2, time for reaching half the maximum intensity after the maximum time", "setting": "[1]; [8]", "value": 7.2, "unit": "s"}, {"measurement": "Tmax, time for reaching the maximum intensity", "setting": "[1]; [8]", "value": 12, "unit": "s"}, {"measurement": "Imax, maximum intensity", "setting": "[1]; [9]", "value": 3.2, "unit": "A.U."}, {"measurement": "RC, chemiluminescence efficiency", "setting": "[1]; [9]", "value": "0.40 10^4 E · mol^-1"}, {"measurement": "T1/2, time for reaching half the maximum intensity after the maximum time", "setting": "[1]; [9]", "value": 6, "unit": "s"}, {"measurement": "Tmax, time for reaching the maximum intensity", "setting": "[1]; [9]", "value": 12, "unit": "s"}, {"measurement": "Imax, maximum intensity", "setting": "[1]; [10]", "value": 0.3, "unit": "A.U."}, {"measurement": "RC, chemiluminescence efficiency", "setting": "[1]; [10]", "value": "0.20 10^4 E · mol^-1"}, {"measurement": "T1/2, time for reaching half the maximum intensity after the maximum time", "setting": "[1]; [10]", "value": 4.8, "unit": "s"}, {"measurement": "Tmax, time for reaching the maximum intensity", "setting": "[1]; [10]", "value": 12, "unit": "s"}, {"measurement": "Imax, maximum intensity", "setting": "[1]; pH 4", "value": 24, "unit": "A.U."}, {"measurement": "RC, chemiluminescence efficiency", "setting": "[1]; pH 4", "value": "1.52 10^4 E · mol^-1"}, {"measurement": "T1/2, time for reaching half the maximum intensity after the maximum time", "setting": "[1]; pH 4", "value": 300, "unit": "s"}, {"measurement": "Tmax, time for reaching the maximum intensity", "setting": "[1]; pH 4", "value": 48, "unit": "s"}, {"measurement": "chemiluminescence efficiency as a function of pH", "setting": "[1]; pH 4 to 8", "value": "rises up to pH6 and then falls"}, {"measurement": "maximum intensity as a function of pH", "setting": "[1]; pH 4 to 8", "value": "increases significantly with the pH"}, {"measurement": "Imax, maximum intensity", "setting": "[1]; pH 5", "value": 17, "unit": "A.U."}, {"measurement": "RC, chemiluminescence efficiency", "setting": "[1]; pH 5", "value": "1.58 10^4 E · mol^-1"}, {"measurement": "T1/2, time for reaching half the maximum intensity after the maximum time", "setting": "[1]; pH 5", "value": 360, "unit": "s"}, {"measurement": "Tmax, time for reaching the maximum intensity", "setting": "[1]; pH 5", "value": 60, "unit": "s"}, {"measurement": "Imax, maximum intensity", "setting": "[1]; pH 6", "value": 25, "unit": "A.U."}, {"measurement": "RC, chemiluminescence efficiency", "setting": "[1]; pH 6", "value": "2.34 10^4 E · mol^-1"}, {"measurement": "T1/2, time for reaching half the maximum intensity after the maximum time", "setting": "[1]; pH 6", "value": 336, "unit": "s"}, {"measurement": "Tmax, time for reaching the maximum intensity", "setting": "[1]; pH 6", "value": 48, "unit": "s"}, {"measurement": "Imax, maximum intensity", "setting": "[1]; pH 7", "value": 110, "unit": "A.U."}, {"measurement": "RC, chemiluminescence efficiency", "setting": "[1]; pH 7", "value": "2.23 10^4 E · mol^-1"}, {"measurement": "T1/2, time for reaching half the maximum intensity after the maximum time", "setting": "[1]; pH 7", "value": 108, "unit": "s"}, {"measurement": "Tmax, time for reaching the maximum intensity", "setting": "[1]; pH 7", "value": 24, "unit": "s"}, {"measurement": "Imax, maximum intensity", "setting": "[1]; pH 8", "value": 245, "unit": "A.U."}, {"measurement": "RC, chemiluminescence efficiency", "setting": "[1]; pH 8", "value": "1.60 10^4 E · mol^-1"}, {"measurement": "T1/2, time for reaching half the maximum intensity after the maximum time", "setting": "[1]; pH 8", "value": 24, "unit": "s"}, {"measurement": "Tmax, time for reaching the maximum intensity", "setting": "[1]; pH 8", "value": 12, "unit": "s"}, {"measurement": "Tmax and T1/2 as a function of pH", "setting": "[1]; pH beyond 5", "value": "decrease when the pH increases beyond 5"}, {"measurement": "ε, molecular extinction coefficient", "setting": "[2]", "value": 23000, "unit": "M⁻¹ cm⁻¹"}, {"measurement": "S, fluorescence sensitivity", "setting": "[2]", "value": "36 10^3"}, {"measurement": "comparison of fluorescence, absorbance and chemiluminescence properties", "setting": "[2]; Tables 2 and 3, versus coumarin-1 and coumarin-311", "value": "has the best fluorescence, absorbance and chemiluminescence properties"}, {"measurement": "RF, quantum efficiency of fluorescence", "setting": "[2]", "value": 0.57}]}, {"molecule": "Cc1cc(=O)oc2cc(N(C)C)ccc12", "note": "[COUMARIN-311, dimethylamino-7 methyl-4 coumarin]", "values": [{"measurement": "RC, quantum efficiency of chemiluminescence", "setting": "[1]; DNPO and H2O2", "value": "0.13 10^2 E · mole^-1"}, {"measurement": "RE, excitation efficiency", "setting": "[1]; DNPO and H2O2", "value": "0.24 10^-2"}, {"measurement": "RC, quantum efficiency of chemiluminescence", "setting": "[1]; TCPO and H2O2, pH 7.5", "value": "0.17 10^2 E · mole^-1"}, {"measurement": "RE, excitation efficiency", "setting": "[1]; TCPO and H2O2, pH 7.5", "value": 0.0032}, {"measurement": "ε, molecular extinction coefficient", "setting": "[2]", "value": 26900, "unit": "M⁻¹ cm⁻¹"}, {"measurement": "S, fluorescence sensitivity", "setting": "[2]", "value": "40 10^3"}, {"measurement": "RF, quantum efficiency of fluorescence", "setting": "[2]", "value": 0.52}]}, {"molecule": "O=C(Cc1cc(=O)oc2c3c4c(cc12)CCCN4CCC3)ON1C(=O)CCC1=O", "note": "[luminarine-1, tetrahydro-2,3,6,7,1H,5H, 11H(1)-benzo-pyrano(6,7,8-ij) succinimidoxycarbonylmethyl-9 quinolizinone-11]", "values": [{"measurement": "solubility", "setting": "[3]", "value": "~1000", "unit": "µg/mL"}, {"measurement": "stability of solution at ambient temperature", "setting": "[4]; ambient temperature, hydrolysis to acid (VIII)", "value": "deteriorates significantly in a few hours at ambient temperature"}, {"measurement": "stability of frozen solution", "setting": "[4]; frozen", "value": "at least two months without any apparent deterioration"}]}, {"molecule": "C=C[C@H]1CN2CC[C@H]1C[C@H]2[C@H](O)c1ccnc2ccc(OC)cc12", "note": "[quinine disulphate]", "values": [{"measurement": "quantum efficiency of fluorescence (reference)", "setting": "[5]", "value": 0.546}]}]}
